From ChEMBL document CHEMBL1201862, “PubChem BioAssay data set” (2004)
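Cultured in 96-well plates, cells were exposed to test compound for 48 hours across five concentrations. Here, GI50 denotes the concentration required for 50% inhibition of growth.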 Activity calls are given as the source filed them. No stated cut-off is given here; in the data, active = GI50 up to about 1.1 µM and inactive = higher.

Assays:
Test in all cases: DTP human tumour cell line panel, 48 h
786-0 = test system: 786-0
HCT-116 = test system: HCT-116
HOP-62 = test system: HOP-62
HT-29 = test system: HT-29
Malme-3M = test system: Malme-3M
NCI-H460 = test system: NCI-H460
NCI-H522 = test system: NCI-H522
OVCAR-8 = test system: OVCAR-8
RXF 393 = test system: RXF 393
SF-539 = test system: SF-539
TK-10 = test system: TK-10
UACC-62 = test system: UACC-62
UO-31 = test system: UO-31
CAKI-1 = test system: CAKI-1

Measured: GI50

Cc1cccc(C(=O)c2cccc3ccccc23)c1C(=O)O
inactive: 786-0 > 100 µM | HCT-116 > 100 µM | HOP-62 > 100 µM | HT-29 > 100 µM | Malme-3M > 100 µM | NCI-H460 > 100 µM | NCI-H522 > 100 µM | OVCAR-8 > 100 µM | RXF 393 > 100 µM | SF-539 > 100 µM | TK-10 > 100 µM | UACC-62 > 100 µM | UO-31 > 100 µM

C#CCC1(C(=O)OCC)C(=O)c2ccccc2N(C)C1=O (stereo not given)
inactive: CAKI-1 35.6 µM | HT-29 > 100 µM | Malme-3M > 100 µM | NCI-H460 > 100 µM | NCI-H522 12.1 µM | OVCAR-8 > 100 µM | SF-539 > 100 µM | TK-10 > 100 µM | UACC-62 > 100 µM | UO-31 30.8 µM

Nc1nc(N)c2nc(-c3ccco3)cnc2n1
inactive: 786-0 27.1 µM | CAKI-1 25 µM | HCT-116 34.4 µM | HOP-62 35.6 µM | HT-29 76.7 µM | Malme-3M 46.5 µM | NCI-H460 35.3 µM | NCI-H522 50.2 µM | OVCAR-8 > 100 µM | RXF 393 26.2 µM | SF-539 38.2 µM | TK-10 88.1 µM | UACC-62 22.4 µM | UO-31 38.5 µM

COc1cccc(/C=N/[N-]C(=S)Nc2ccccc2)c1[O-].O.[Zn+2]
inactive: 786-0 > 100 µM | CAKI-1 87.7 µM | HOP-62 17 µM | HT-29 72.4 µM | Malme-3M 86.5 µM | NCI-H460 50.9 µM | NCI-H522 19.7 µM | OVCAR-8 35.5 µM | RXF 393 35.9 µM | SF-539 66.4 µM | TK-10 > 100 µM | UACC-62 19.7 µM | UO-31 33.6 µM

C=CCc1cc(OC)c2c(c1)C(OC(C)=O)CC(c1ccc(OC)c(OC)c1)O2 (stereo not given)
inactive: CAKI-1 > 100 µM | HCT-116 > 100 µM | HOP-62 45.4 µM | HT-29 > 100 µM | Malme-3M > 100 µM | NCI-H460 > 100 µM | NCI-H522 > 100 µM | SF-539 47.4 µM | TK-10 63.1 µM | UACC-62 > 100 µM | UO-31 > 100 µM

Nc1nc(SCc2ccccc2Cl)c2[nH]cnc2n1
inactive: HCT-116 59.8 µM | HOP-62 25.5 µM | Malme-3M 70.8 µM | NCI-H460 48.9 µM | NCI-H522 56.4 µM | OVCAR-8 55.7 µM | RXF 393 23.1 µM | SF-539 74.8 µM | TK-10 18.8 µM | UACC-62 61 µM | UO-31 77.6 µM

COc1ccc(/C=C/c2cc(OC)c(OCc3ccccc3)c(OC)c2)cc1
inactive: 786-0 > 100 µM | CAKI-1 > 100 µM | HCT-116 > 100 µM | HOP-62 > 100 µM | HT-29 27.9 µM | Malme-3M > 100 µM | NCI-H460 > 100 µM | NCI-H522 > 100 µM | OVCAR-8 > 100 µM | SF-539 > 100 µM | UACC-62 77.1 µM | UO-31 52.1 µM

Nc1nc(=O)[nH]c2c1cnn2C1CCCCO1 (stereo not given)
inactive: CAKI-1 > 100 µM | HCT-116 > 100 µM | HT-29 > 100 µM | Malme-3M > 100 µM | NCI-H460 > 100 µM | OVCAR-8 > 100 µM | RXF 393 56 µM | SF-539 > 100 µM | TK-10 > 100 µM | UO-31 > 100 µM

C=C(N=[N+]=[N-])c1cn(C2CC(O)C(CO)O2)c(=O)[nH]c1=O (stereo not given)
inactive: 786-0 > 100 µM | CAKI-1 > 100 µM | HCT-116 > 100 µM | HOP-62 > 100 µM | HT-29 > 100 µM | Malme-3M > 100 µM | NCI-H460 > 100 µM | NCI-H522 > 100 µM | OVCAR-8 > 100 µM | RXF 393 > 100 µM | SF-539 > 100 µM | TK-10 > 100 µM | UACC-62 > 100 µM | UO-31 > 100 µM

O=c1c2cc3c(=O)n(CCc4ccccc4CO)c(=O)c3cc2c(=O)n1CCc1ccccc1CO
inactive: HCT-116 > 100 µM | HT-29 > 100 µM | Malme-3M > 100 µM | NCI-H460 > 100 µM | NCI-H522 > 100 µM | OVCAR-8 > 100 µM | RXF 393 > 100 µM | SF-539 > 100 µM | TK-10 > 100 µM | UACC-62 > 100 µM | UO-31 > 100 µM

CC12C(=CC(=O)CC1SCCS(=O)(=O)O)C(C#N)=C(N)N2c1ccc(Cl)c(Cl)c1 (stereo not given)
inactive: 786-0 > 100 µM | CAKI-1 > 100 µM | HCT-116 > 100 µM | HOP-62 > 100 µM | HT-29 > 100 µM | NCI-H460 10 µM | NCI-H522 36 µM | OVCAR-8 > 100 µM | RXF 393 36.8 µM | SF-539 > 100 µM | TK-10 > 100 µM | UACC-62 > 100 µM | UO-31 > 100 µM

O=C(O)[C@@H](NS(=O)(=O)c1ccc(F)cc1)c1ccccc1
inactive: 786-0 > 100 µM | CAKI-1 > 100 µM | HCT-116 > 100 µM | HOP-62 > 100 µM | HT-29 > 100 µM | Malme-3M > 100 µM | NCI-H460 > 100 µM | NCI-H522 > 100 µM | OVCAR-8 > 100 µM | RXF 393 > 100 µM | SF-539 > 100 µM | TK-10 > 100 µM | UACC-62 > 100 µM | UO-31 > 100 µM

COC(=O)c1ccccc1NC(=O)C(=O)CC(=O)CC(c1ccccc1)c1c(O)c2ccccc2oc1=O (stereo not given)
inactive: 786-0 > 100 µM | CAKI-1 > 100 µM | HCT-116 > 100 µM | HOP-62 > 100 µM | HT-29 > 100 µM | Malme-3M > 100 µM | NCI-H460 > 100 µM | NCI-H522 > 100 µM | OVCAR-8 > 100 µM | RXF 393 > 100 µM | SF-539 > 100 µM | TK-10 > 100 µM | UACC-62 > 100 µM | UO-31 > 100 µM

C/C(CCn1[nH]c(=O)ccc1=O)=N\NC(=O)C(=O)NN
inactive: 786-0 > 100 µM | CAKI-1 > 100 µM | HOP-62 > 100 µM | HT-29 > 100 µM | Malme-3M > 100 µM | NCI-H460 > 100 µM | NCI-H522 > 100 µM | OVCAR-8 > 100 µM | RXF 393 > 100 µM | SF-539 > 100 µM | TK-10 > 100 µM | UACC-62 > 100 µM | UO-31 > 100 µM

C=C=CC(NC(=O)c1ccccc1)(C(=O)O)C(F)(F)F (stereo not given)
inactive: CAKI-1 > 10 µM | HCT-116 > 100 µM | HT-29 > 100 µM | Malme-3M > 100 µM | NCI-H460 > 100 µM | OVCAR-8 > 100 µM | RXF 393 > 100 µM | SF-539 > 100 µM | TK-10 > 100 µM

COC(=O)[C@H]1N[C@@H](C(=O)OC)C23CCC[C@H]2CC[C@]1(C(OC)OC)C3
inactive: 786-0 81.1 µM | CAKI-1 > 100 µM | HCT-116 > 100 µM | HOP-62 > 100 µM | HT-29 > 100 µM | Malme-3M > 100 µM | NCI-H460 > 100 µM | NCI-H522 > 100 µM | OVCAR-8 > 100 µM | SF-539 > 100 µM | TK-10 > 100 µM | UACC-62 > 100 µM | UO-31 > 100 µM
